In patent US11345711B2, “8,9-dihydroimidazo[1,2-a]pyrimido[5,4-e]pyrimidin-5(6H)-ones” (IMPACT THERAPEUTICS (SHANGHAI), INC, priority 2016, dated 2022):
Read-outs that look alike come from different tables or passages of the source.

Assays:
[1] = system: LoVo cells; experiment: MTT based cell viability assay on LoVo cells; settings: Homo sapiens, LoVo, 72 h, 3 d, read-out: IC50, growth inhibition of LoVo cells
Procedure, shortened: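 Inhibition of LoVo proliferation was derived as IC50 from a sigmoidal dose-response fit of cell survival. Readout was MTT (0.5 mg/mL, 4 h) with absorbance at 552/630/690 nm, after 3-day treatment at 37 °C. Eight-point series from 10 μM to 0.01 μM, DMSO control, 1% DMSO final.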

[2] = biological target: Wee1 (h) (Homo sapiens, UniProt P30291); experiment: Wee1 kinase (h) detection method, [γ-33P]-ATP filter assay; type: biochemical
[3] = system: NCI-H1299 cells; experiment: MTT based cell viability assay on NCI-H1299 cells; settings: Homo sapiens, read-out: IC50, growth inhibition of NCI-H1299 cells
Procedure, shortened: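 NCI-H1299 cells (1000/well, settled overnight) were exposed for 3 d at 37 °C, 5% CO2, to an eight-point series of 10 μM to 0.01 μM plus DMSO blank, as prepared in DMSO (final DMSO 1‰). MTT (0.5 mg/mL, 4 h) was read at 552/630/690 nm. IC50 came from sigmoidal dose-response fits of survival.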

Wee1 (h), sequence (P30291 whole entry): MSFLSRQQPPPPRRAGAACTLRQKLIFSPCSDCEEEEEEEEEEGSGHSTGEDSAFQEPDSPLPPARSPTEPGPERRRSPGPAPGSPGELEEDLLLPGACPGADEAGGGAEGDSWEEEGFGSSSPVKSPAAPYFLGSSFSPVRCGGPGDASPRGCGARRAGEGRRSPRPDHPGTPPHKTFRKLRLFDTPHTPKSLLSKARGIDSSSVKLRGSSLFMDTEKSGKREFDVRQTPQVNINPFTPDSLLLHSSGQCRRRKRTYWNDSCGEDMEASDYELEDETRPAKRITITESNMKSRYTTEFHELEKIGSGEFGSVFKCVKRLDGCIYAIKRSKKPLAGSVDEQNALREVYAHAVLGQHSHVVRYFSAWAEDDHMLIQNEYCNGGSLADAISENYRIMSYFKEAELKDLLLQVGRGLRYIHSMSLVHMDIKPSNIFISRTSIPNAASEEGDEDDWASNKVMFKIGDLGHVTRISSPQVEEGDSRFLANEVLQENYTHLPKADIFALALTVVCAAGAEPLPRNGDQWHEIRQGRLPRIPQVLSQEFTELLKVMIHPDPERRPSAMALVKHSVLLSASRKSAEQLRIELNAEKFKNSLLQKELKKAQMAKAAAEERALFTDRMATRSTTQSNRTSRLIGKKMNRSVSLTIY

`Cc1cc(Nc2ncc3c(n2)N2CCN=C2N(c2c(Cl)cccc2Cl)C3=O)ccc1N1C[C@@H](C)N(C(C)C)[C@@H](C)C1` [Example 78, 6-(2,6-Dichlorophenyl)-2-((4-((3S,5R)-4-isopropyl-3,5-dimethylpiperazin-1-yl)-3-methylphenyl)amino)-8,9-dihydroimidazo[1,2-a]pyrimido[5,4-e]pyrimidin-5(6H)-one] was tested, and the IC50 [1] was 0.0414 µM, the “Inh. (%) of Wee1 kinase enzyme activity” value ([2]; C 0.01 μm compound) was 29% and the “Inh. (%) of Wee1 kinase enzyme activity” value ([2]; C 0.1 μm compound) was 77%. The “Inh. (%) of Wee1 kinase enzyme activity” value ([2]; C 1 μm compound) was 100% and the IC50 ([3]; NCI-H1299, NCI-H1299 cells) was 0.149 µM.
With `O=C1c2cnc(Nc3ccc(N4CCN(CCO)CC4)cc3)nc2N2CCN=C2N1c1c(Cl)cccc1Cl` [Example 182, 6-(2,6-Dichlorophenyl)-2-((4-(4-(2-hydroxyethyl)piperazin-1-yl)phenyl)amino)-8,9-dihydroimidazo[1,2-a]pyrimido[5,4-e]pyrimidin-5(6H)-one] the IC50 [1] was 0.243 µM, the “Inh. (%) of Wee1 kinase enzyme activity” value ([2]; C 1 μm compound) was 94% and the IC50 ([3]; NCI-H1299 cells) was 0.503 µM.
In the case of `CN(C)C1CCN(c2ccc(Nc3ncc4c(n3)N3CCN=C3N(c3c(Cl)cccc3Cl)C4=O)cc2)CC1` [Example 138, 6-(2,6-Dichlorophenyl)-2-((4-(4-(dimethylamino)piperidin-1-yl)phenyl)amino)-8,9-dihydroimidazo[1,2-a]pyrimido[5,4-e]pyrimidin-5(6H)-one], the IC50 [1] is reported as 0.199 µM, the “Inh. (%) of Wee1 kinase enzyme activity” value ([2]; C 0.01 μm compound) is reported as 22% and the “Inh. (%) of Wee1 kinase enzyme activity” value ([2]; C 0.1 μm compound) is reported as 77%. The “Inh. (%) of Wee1 kinase enzyme activity” value ([2]; C 1 μm compound) was 96% and the IC50 ([3]; NCI-H1299, NCI-H1299 cells) was 0.17 µM.
With `COc1cc(Nc2ncc3c(n2)N2CCN=C2N(c2c(Cl)cccc2Cl)C3=O)ccc1N1CCN(C)CC1` [Example 146, 6-(2,6-Dichlorophenyl)-2-((3-methoxy-4-(4-methylpiperazin-1-yl)phenyl)amino)-8,9-dihydroimidazo[1,2-a]pyrimido[5,4-e]pyrimidin-5(6H)-one] the IC50 [1] was 0.0833 µM, the “Inh. (%) of Wee1 kinase enzyme activity” value ([2]; C 0.01 μm compound) was 9% and the “Inh. (%) of Wee1 kinase enzyme activity” value ([2]; C 0.1 μm compound) was 85%. The “Inh. (%) of Wee1 kinase enzyme activity” value ([2]; C 1 μm compound) was 95% and the IC50 ([3]; NCI-H1299 cells) was 0.251 µM.
With `CN1Cc2cc(Nc3ncc4c(n3)N3CCN=C3N(c3c(Cl)cccc3Cl)C4=O)ccc2C(C)(C)C1` [Example 13, 6-(2,6-Dichlorophenyl)-2-((2,4,4-trimethyl-1,2,3,4-tetrahydroisoquinolin-7-yl)amino)-8,9-dihydroimidazo[1,2-a]pyrimido[5,4-e]pyrimidin-5(6H)-one] the IC50 [1] was 0.0767 µM, the “Inh. (%) of Wee1 kinase enzyme activity” value ([2]; C 0.01 μm compound) was 29% and the “Inh. (%) of Wee1 kinase enzyme activity” value ([2]; C 0.1 μm compound) was 87%. For the same compound, the “Inh. (%) of Wee1 kinase enzyme activity” value ([2]; C 1 μm compound) was 100% and the IC50 ([3]; NCI-H1299 cells) was 0.101 µM.
`C[C@@H]1CN(c2ccc(Nc3ncc4c(n3)N3CCN=C3N(c3c(Cl)cccc3Cl)C4=O)cc2F)C[C@H](C)N1C` [Example 70, 6-(2,6-Dichlorophenyl)-2-((3-fluoro-4-((3S,5R)-3,4,5-trimethylpiperazin-1-yl)phenyl)amino)-8,9-dihydroimidazo[1,2-a]pyrimido[5,4-e]pyrimidin-5(6H)-one] was tested, and the IC50 [1] was 0.124 µM, the “Inh. (%) of Wee1 kinase enzyme activity” value ([2]; C 0.01 μm compound) was 17% and the “Inh. (%) of Wee1 kinase enzyme activity” value ([2]; C 0.1 μm compound) was 69%. The “Inh. (%) of Wee1 kinase enzyme activity” value ([2]; C 1 μm compound) was 99% and the IC50 ([3]; NCI-H1299, NCI-H1299 cells) was 0.448 µM.
In the case of `Cc1cc(Nc2ncc3c(n2)N2CCN=C2N(c2c(Cl)cccc2Cl)C3=O)cc2c1CCN(C)C2` [Example 131, 6-(2,6-Dichlorophenyl)-2-((2,5-dimethyl-1,2,3,4-tetrahydroisoquinolin-7-yl)amino)-8,9-dihydroimidazo[1,2-a]pyrimido[5,4-e]pyrimidin-5(6H)-one], the IC50 [1] is reported as 0.187 µM, the “Inh. (%) of Wee1 kinase enzyme activity” value ([2]; C 0.01 μm compound) is reported as 27% and the “Inh. (%) of Wee1 kinase enzyme activity” value ([2]; C 0.1 μm compound) is reported as 89%. The “Inh. (%) of Wee1 kinase enzyme activity” value ([2]; C 1 μm compound) was 100% and the IC50 ([3]; NCI-H1299, NCI-H1299 cells) was 0.0588 µM.
For `CN1Cc2cc(Nc3ncc4c(n3)N3CCN=C3N(c3c(Cl)cccc3Cl)C4=O)ccc2C2(CC2)C1` [Example 14, 6-(2,6-Dichlorophenyl)-2-((2′-methyl-2′,3′-dihydro-1′H-spiro[cyclopropane-1,4′-isoquinolin]-7′-yl)amino)-8,9-dihydroimidazo[1,2-a]pyrimido[5,4-e]pyrimidin-5(6H)-one], the IC50 [1] was 0.149 µM, the “Inh. (%) of Wee1 kinase enzyme activity” value ([2]; C 0.01 μm compound) was 12% and the “Inh. (%) of Wee1 kinase enzyme activity” value ([2]; C 0.1 μm compound) was 86%. For the same compound, the “Inh. (%) of Wee1 kinase enzyme activity” value ([2]; C 1 μm compound) was 92% and the IC50 ([3]; NCI-H1299 cells) was 0.0987 µM.
In the case of `CN1CCN(c2ccc(Nc3ncc4c(n3)N3CCN=C3N(c3c(F)cccc3F)C4=O)cc2Cl)CC1` [Example 100, 6-(2,6-Difluorophenyl)-2-((3-chloro-4-(4-methylpiperazin-1-yl)phenyl)amino)-8,9-dihydroimidazo[1,2-a]pyrimido[5,4-e]pyrimidin-5(6H)-one], the IC50 [1] is reported as 0.173 µM, the “Inh. (%) of Wee1 kinase enzyme activity” value ([2]; C 1 μm compound) is reported as 87% and the IC50 ([3]; NCI-H1299 cells) is reported as 0.532 µM.
With `Cc1cc(Nc2ncc3c(n2)N2CCN=C2N(c2c(Cl)cccc2Cl)C3=O)cc(F)c1N1CCN(C)CC1` [Example 148, 6-(2,6-Dichlorophenyl)-2-((3-fluoro-5-methyl-4-(4-methylpiperazin-1-yl)phenyl)amino)-8,9-dihydroimidazo[1,2-a]pyrimido[5,4-e]pyrimidin-5(6H)-one] the IC50 [1] was 0.0398 µM, the “Inh. (%) of Wee1 kinase enzyme activity” value ([2]; C 0.01 μm compound) was 40% and the “Inh. (%) of Wee1 kinase enzyme activity” value ([2]; C 0.1 μm compound) was 90%. The “Inh. (%) of Wee1 kinase enzyme activity” value ([2]; C 1 μm compound) was 94% and the IC50 ([3]; NCI-H1299, NCI-H1299 cells) was 0.123 µM.
With `Cc1cc(Nc2ncc3c(n2)N2CCN=C2N(c2c(F)cccc2Cl)C3=O)cc(Cl)c1N1CCN(C)CC1` [Example 125, 6-(2-Chloro-6-fluorophenyl)-2-((3-chloro-5-methyl-4-(4-methylpiperazin-1-yl)phenyl)amino)-8,9-dihydroimidazo[1,2-a]pyrimido[5,4-e]pyrimidin-5(6H)-one] the IC50 [1] was 0.0264 µM, the “Inh. (%) of Wee1 kinase enzyme activity” value ([2]; C 0.01 μm compound) was 18% and the “Inh. (%) of Wee1 kinase enzyme activity” value ([2]; C 0.1 μm compound) was 74%. For the same compound, the “Inh. (%) of Wee1 kinase enzyme activity” value ([2]; C 1 μm compound) was 95% and the IC50 ([3]; NCI-H1299, NCI-H1299 cells) was 0.0929 µM.
In the case of `Cc1cccc(C)c1N1C(=O)c2cnc(Nc3ccc4c(c3)CN(C)CC4)nc2N2CCN=C21` [Example 15, 6-(2,6-Dimethylphenyl)-2-((2-methyl-1,2,3,4-tetrahydroisoquinolin-7-yl)amino)-8,9-dihydroimidazo[1,2-a]pyrimido[5,4-e]pyrimidin-5(6H)-one], the IC50 [1] is reported as 1.73 µM, the “Inh. (%) of Wee1 kinase enzyme activity” value ([2]; C 1 μm compound) is reported as 89% and the IC50 ([3]; NCI-H1299 cells) is reported as 0.966 µM.
With `COc1cc(Nc2ncc3c(n2)N2CCN=C2N(c2c(Cl)cccc2Cl)C3=O)ccc1N1CCNCC1` [Example 178, 6-(2,6-Dichlorophenyl)-2-((3-methoxy-4-(piperazin-1-yl)phenyl)amino)-8,9-dihydroimidazo[1,2-a]pyrimido[5,4-e]pyrimidin-5(6H)-one] the IC50 [1] was 0.281 µM, the “Inh. (%) of Wee1 kinase enzyme activity” value ([2]; C 1 μm compound) was 94% and the IC50 ([3]; NCI-H1299 cells) was 0.36 µM.
In the case of `COc1cc(Nc2ncc3c(n2)N2CCN=C2N(c2c(Cl)cccc2Cl)C3=O)cc(Cl)c1N1CCC(N(C)C)CC1` [Example 144, 6-(2,6-Dichlorophenyl)-2-((3-chloro-4-(4-(dimethylamino)piperidin-1-yl)-5-methoxyphenyl)amino)-8,9-dihydroimidazo[1,2-a]pyrimido[5,4-e]pyrimidin-5(6H)-one], the IC50 [1] is reported as 0.0615 µM, the “Inh. (%) of Wee1 kinase enzyme activity” value ([2]; C 0.01 μm compound) is reported as 19% and the “Inh. (%) of Wee1 kinase enzyme activity” value ([2]; C 0.1 μm compound) is reported as 76%. The “Inh. (%) of Wee1 kinase enzyme activity” value ([2]; C 1 μm compound) was 97% and the IC50 ([3]; NCI-H1299, NCI-H1299 cells) was 0.14 µM.
`COc1cc(Nc2ncc3c(n2)N2CCN=C2N(c2c(F)cccc2Cl)C3=O)cc(Br)c1N1CCN(C)CC1` [Example 127, 6-(2-Chloro-6-fluorophenyl)-2-((3-bromo-5-methoxy-4-(4-methylpiperazin-1-yl)phenyl)amino)-8,9-dihydroimidazo[1,2-a]pyrimido[5,4-e]pyrimidin-5(6H)-one] was tested, and the IC50 [1] was 0.0423 µM, the “Inh. (%) of Wee1 kinase enzyme activity” value ([2]; C 1 μm compound) was 88% and the IC50 ([3]; NCI-H1299 cells) was 0.0965 µM.
With `C[C@@H]1CN(c2ccc(Nc3ncc4c(n3)N3CCN=C3N(c3c(Cl)cccc3Cl)C4=O)c(F)c2)C[C@H](C)N1C` [Example 66, 6-(2,6-Dichlorophenyl)-2-((2-fluoro-4-((3S,5R)-3,4,5-trimethylpiperazin-1-yl)phenyl)amino)-8,9-dihydroimidazo[1,2-a]pyrimido[5,4-e]pyrimidin-5(6H)-one] the IC50 [1] was over 100 µM, the “Inh. (%) of Wee1 kinase enzyme activity” value ([2]; C 1 μm compound) was 0% and the IC50 ([3]; NCI-H1299 cells) was over 10 µM.
In the case of `C[C@@H]1CN(c2ccc(Nc3ncc4c(n3)N3CCN=C3N(c3c(Cl)cccc3Cl)C4=O)cc2Cl)C[C@H](C)N1C` [Example 72, 6-(2,6-Dichlorophenyl)-2-((3-chloro-4-((3S,5R)-3,4,5-trimethylpiperazin-1-yl)phenyl)amino)-8,9-dihydroimidazo[1,2-a]pyrimido[5,4-e]pyrimidin-5(6H)-one], the IC50 [1] is reported as 0.0592 µM, the “Inh. (%) of Wee1 kinase enzyme activity” value ([2]; C 0.01 μm compound) is reported as 22% and the “Inh. (%) of Wee1 kinase enzyme activity” value ([2]; C 0.1 μm compound) is reported as 75%. For the same compound, the “Inh. (%) of Wee1 kinase enzyme activity” value ([2]; C 1 μm compound) was 97% and the IC50 ([3]; NCI-H1299 cells) was 0.328 µM.
`Cc1cccc(F)c1N1C(=O)c2cnc(Nc3ccc(N4CCN(C)CC4)c(Cl)c3)nc2N2CCN=C21` [Example 168, 6-(2-Fluoro-6-methylphenyl)-2-((3-chloro-4-(4-methylpiperazin-1-yl)phenyl)amino)-8,9-dihydroimidazo[1,2-a]pyrimido[5,4-e]pyrimidin-5(6H)-one] was tested, and the IC50 [1] was 0.296 µM, the “Inh. (%) of Wee1 kinase enzyme activity” value ([2]; C 1 μm compound) was 89% and the IC50 ([3]; NCI-H1299 cells) was 0.599 µM.
For `Cc1cc(Nc2ncc3c(n2)N2CCN=C2N(c2c(Cl)cccc2Cl)C3=O)ccc1N1CCN(C(C)C)CC1` [Example 76, 6-(2,6-Dichlorophenyl)-2-((4-(4-isopropylpiperazin-1-yl)-3-methylphenyl)amino)-8,9-dihydroimidazo[1,2-a]pyrimido[5,4-e]pyrimidin-5(6H)-one], the IC50 [1] was 0.0488 µM, the “Inh. (%) of Wee1 kinase enzyme activity” value ([2]; C 0.01 μm compound) was 22% and the “Inh. (%) of Wee1 kinase enzyme activity” value ([2]; C 0.1 μm compound) was 74%. The “Inh. (%) of Wee1 kinase enzyme activity” value ([2]; C 1 μm compound) was 97% and the IC50 ([3]; NCI-H1299, NCI-H1299 cells) was 0.198 µM.
